Measured values as given in patent US12565505B2, “mTORC modulators and uses thereof” (Aeovian Pharmaceuticals, Inc., priority 2019, dated 2026).

Tests used:
mTORC1 = molecular target: T1, mTORC1 (Homo sapiens, UniProt P42345+P62942); experiment: Inhibition assay for mTORC1: phosphorylation of pS6K at Thr389, AlphaLISA SureFire in PC3 cells; type: cell-based; conditions: PC3 cells, 24 hours treatment, pS6K Thr389; analogs substituted at C40 and C16 (C16 diastereomer mixtures not isolated); read-out: pIC50 mTORC1 (converted)
T1 construct: endogenous in cells; host or cells: PC3 cells (human prostate adenocarcinoma)
Protocol: (§1) The IC50s of the inhibition of mTORC1 and mTORC2 were determined in vitro by determining the phosphorylation of pS6K at position Thr389 (mTORC1 inhibition) and pAkt at Ser473 (mTORC2 inhibition). In vitro studies were performed with AiphaLISA® technology using PC3 cells (Prostate Adenocarcinoma; Human (Homo sapiens)). The cells were seeded in 96 well plates and were treated for 24 hours with the different compounds. […] All analysis were performed using GraphPad Prism 7.0 (GraphPad Software, San Diego, USA).
Tables 5-7 include PIC50 values for mTORC1 of selected compounds; with compounds having an PIC50 for mTORC1 of >9.5 as A, 8.5 to 9.5 as B, and less than 8.5 as C.

mTORC2 = molecular target: T2, mTORC2 (Homo sapiens, UniProt P42345+P62942); experiment: Inhibition assay for mTORC2: phosphorylation of pAkt at Ser473, AlphaLISA SureFire in PC3 cells; type: cell-based; conditions: PC3 cells, 24 hours treatment, analogs substituted at C40 and C16 (C16 diastereomer mixtures not isolated), read-out: pIC50 mTORC2 (converted)
T2 construct: endogenous in cells; host or cells: PC3 cells (human prostate adenocarcinoma)
Protocol: as §1, with “USA). […]” for “USA).”

SMILES | IC50 (mTORC1) [nM] | IC50 (mTORC2) [nM]
CO[C@@H]1C[C@H](C[C@@H](C)[C@@H]2CC(=O)[C@H](C)/C=C(\C)[C@@H](O)[C@@H](OC)C(=O)[C@H](C)C[C@H](C)/C=C/C=C/C=C(\C)C(OCCO)C[C@@H]3CC[C@@H](C)[C@@](O)(O3)C(=O)C(=O)N3CCCCC3C(=O)O2)CC[C@H]1OC(=O)NCCN1CCCCC1 (stereo partly drawn) [Compound 72] | 0.316 to 3.16 | > 10000
CO[C@@H]1C[C@H](C[C@@H](C)[C@@H]2CC(=O)[C@H](C)/C=C(\C)[C@@H](O)[C@@H](OC)C(=O)[C@H](C)C[C@H](C)/C=C/C=C/C=C(\C)C(OCC3COC3)C[C@@H]3CC[C@@H](C)[C@@](O)(O3)C(=O)C(=O)N3CCCCC3C(=O)O2)CC[C@H]1OCCO (stereo partly drawn) [Compound 75] | 0.316 to 3.16 | 1000 to 10000
CO[C@@H]1C[C@H](C[C@@H](C)[C@@H]2CC(=O)[C@H](C)/C=C(\C)[C@@H](O)[C@@H](OC)C(=O)[C@H](C)C[C@H](C)/C=C/C=C/C=C(\C)C(OCCO)C[C@@H]3CC[C@@H](C)[C@@](O)(O3)C(=O)C(=O)N3CCCCC3C(=O)O2)CC[C@H]1OC(=O)NCCN1CCN(C)CC1 (stereo partly drawn) [Compound 76] | 0.316 to 3.16 | > 10000
COCCOC1C[C@@H]2CC[C@@H](C)[C@@](O)(O2)C(=O)C(=O)N2CCCCC2C(=O)O[C@H]([C@H](C)C[C@@H]2CC[C@@H](OCCN3C[C@@H](C)O[C@@H](C)C3)[C@H](OC)C2)CC(=O)[C@H](C)/C=C(\C)[C@@H](O)[C@@H](OC)C(=O)[C@H](C)C[C@H](C)/C=C/C=C/C=C/1C (stereo partly drawn) [Compound 81] | 0.316 to 3.16 | 1000 to 10000
CO[C@@H]1C[C@H](C[C@@H](C)[C@@H]2CC(=O)[C@H](C)/C=C(\C)[C@@H](O)[C@@H](OC)C(=O)[C@H](C)C[C@H](C)/C=C/C=C/C=C(\C)C(OCCO)C[C@@H]3CC[C@@H](C)[C@@](O)(O3)C(=O)C(=O)N3CCCCC3C(=O)O2)CC[C@H]1OC(=O)NCCN1CCOCC1 (stereo partly drawn) [Compound 82] | 0.316 to 3.16 | 1000 to 10000
CO[C@@H]1C[C@H](C[C@@H](C)[C@@H]2CC(=O)[C@H](C)/C=C(\C)[C@@H](O)[C@@H](OC)C(=O)[C@H](C)C[C@H](C)/C=C/C=C/C=C(\C)C(OCC3COC3)C[C@@H]3CC[C@@H](C)[C@@](O)(O3)C(=O)C(=O)N3CCCCC3C(=O)O2)CC[C@H]1OCCCO (stereo partly drawn) [Compound 84] | 0.316 to 3.16 | 1000 to 10000
COCCOC1C[C@@H]2CC[C@@H](C)[C@@](O)(O2)C(=O)C(=O)N2CCCCC2C(=O)O[C@H]([C@H](C)C[C@@H]2CC[C@@H](OCCCN3CCC(O)CC3)[C@H](OC)C2)CC(=O)[C@H](C)/C=C(\C)[C@@H](O)[C@@H](OC)C(=O)[C@H](C)C[C@H](C)/C=C/C=C/C=C/1C (stereo partly drawn) [Compound 85] | 0.316 to 3.16 | 1000 to 10000
CO[C@@H]1C[C@H](C[C@@H](C)[C@@H]2CC(=O)[C@H](C)/C=C(\C)[C@@H](O)[C@@H](OC)C(=O)[C@H](C)C[C@H](C)/C=C/C=C/C=C(\C)C(OCC3CCOCC3)C[C@@H]3CC[C@@H](C)[C@@](O)(O3)C(=O)C(=O)N3CCCCC3C(=O)O2)CC[C@H]1OCCO (stereo partly drawn) [Compound 86] | 0.316 to 3.16 | 1000 to 10000
CO[C@@H]1C[C@H](C[C@@H](C)[C@@H]2CC(=O)[C@H](C)/C=C(\C)[C@@H](O)[C@@H](OC)C(=O)[C@H](C)C[C@H](C)/C=C/C=C/C=C(\C)C(OCCO)C[C@@H]3CC[C@@H](C)[C@@](O)(O3)C(=O)C(=O)N3CCCCC3C(=O)O2)CC[C@H]1OCCCN1CCCCC1 (stereo partly drawn) [Compound 87, (1R,9S,12S,15R,16E,18R,19R,21R,23S,24E,26E,28E,32S,35R)-1,18-dihydroxy-30-(2-hydroxyethoxy)-19-methoxy-12-[(1R)-2-[(1S,3R,4R)-3-methoxy-4-[3-(1-piperidyl)propoxy]cyclohexyl]-1-methyl-ethyl]-15,17,21,23,29,35-hexamethyl-11,36-dioxa-4-azatricyclo[30.3.1.0^4,9]hexatriaconta-16,24,26,28-tetraene-2,3,10,14,20-pentone] | 0.316 to 3.16 | 1000 to 10000
CO[C@@H]1C[C@H](C[C@@H](C)[C@@H]2CC(=O)[C@H](C)/C=C(\C)[C@@H](O)[C@@H](OC)C(=O)[C@H](C)C[C@H](C)/C=C/C=C/C=C(\C)C(OCCO)C[C@@H]3CC[C@@H](C)[C@@](O)(O3)C(=O)C(=O)N3CCCCC3C(=O)O2)CC[C@H]1OC(=O)NCCn1cnnn1 (stereo partly drawn) [Compound 89] | 0.316 to 3.16 | 1000 to 10000

The remaining lines, values ahead:

IC50 (mTORC1) [nM] | IC50 (mTORC2) [nM] | SMILES
0.316 to 3.16 | > 10000 | CO[C@@H]1C[C@H](C[C@@H](C)[C@@H]2CC(=O)[C@H](C)/C=C(\C)[C@@H](O)[C@@H](OC)C(=O)[C@H](C)C[C@H](C)/C=C/C=C/C=C(\C)C(OCCO)C[C@@H]3CC[C@@H](C)[C@@](O)(O3)C(=O)C(=O)N3CCCCC3C(=O)O2)CC[C@H]1OC(=O)N(C)CCCN(C)C (stereo partly drawn) [Compound 77]
0.316 to 3.16 | > 10000 | CO[C@@H]1C[C@H](C[C@@H](C)[C@@H]2CC(=O)[C@H](C)/C=C(\C)[C@@H](O)[C@@H](OC)C(=O)[C@H](C)C[C@H](C)/C=C/C=C/C=C(\C)C(OC(C)C)C[C@@H]3CC[C@@H](C)[C@@](O)(O3)C(=O)C(=O)N3CCCCC3C(=O)O2)CC[C@H]1OC(=O)NCCc1ccccc1 (stereo partly drawn) [Compound 80]
0.316 to 3.16 | 1000 to 10000 | CO[C@@H]1C[C@H](C[C@@H](C)[C@@H]2CC(=O)[C@H](C)/C=C(\C)[C@@H](O)[C@@H](OC)C(=O)[C@H](C)C[C@H](C)/C=C/C=C/C=C(\C)C(OCCO)C[C@@H]3CC[C@@H](C)[C@@](O)(O3)C(=O)C(=O)N3CCCCC3C(=O)O2)CC[C@H]1OC(=O)N(C)CCO (stereo partly drawn) [Compound 83]
< 0.316 | 1000 to 10000 | CO[C@@H]1C[C@H](C[C@@H](C)[C@@H]2CC(=O)[C@H](C)/C=C(\C)[C@@H](O)[C@@H](OC)C(=O)[C@H](C)C[C@H](C)/C=C/C=C/C=C(\C)C(OC[C@H](O)c3ccccc3)C[C@@H]3CC[C@@H](C)[C@@](O)(O3)C(=O)C(=O)N3CCCCC3C(=O)O2)CC[C@H]1OCCO (stereo partly drawn) [Compound 88]
< 0.316 | 1000 to 10000 | CO[C@@H]1C[C@H](C[C@@H](C)[C@@H]2CC(=O)[C@H](C)/C=C(\C)[C@@H](O)[C@@H](OC)C(=O)[C@H](C)C[C@H](C)/C=C/C=C/C=C(\C)C(OC[C@@H](O)c3ccccc3)C[C@@H]3CC[C@@H](C)[C@@](O)(O3)C(=O)C(=O)N3CCCCC3C(=O)O2)CC[C@H]1OCCCO (stereo partly drawn) [Compound 90]
0.316 to 3.16 | 1000 to 10000 | CO[C@@H]1C[C@H](C[C@@H](C)[C@@H]2CC(=O)[C@H](C)/C=C(\C)[C@@H](O)[C@@H](OC)C(=O)[C@H](C)C[C@H](C)/C=C/C=C/C=C(\C)C(OCC(C)(C)O)C[C@@H]3CC[C@@H](C)[C@@](O)(O3)C(=O)C(=O)N3CCCCC3C(=O)O2)CC[C@H]1OCCO (stereo partly drawn) [Compound 91]
< 0.316 | 1000 to 10000 | CO[C@@H]1C[C@H](C[C@@H](C)[C@@H]2CC(=O)[C@H](C)/C=C(\C)[C@@H](O)[C@@H](OC)C(=O)[C@H](C)C[C@H](C)/C=C/C=C/C=C(\C)C(OC[C@@H](O)c3ccccc3)C[C@@H]3CC[C@@H](C)[C@@](O)(O3)C(=O)C(=O)N3CCCCC3C(=O)O2)CC[C@H]1OCCCN1CCOCC1 (stereo partly drawn) [Compound 92]
< 0.316 | < 1000 | CO[C@@H]1C[C@H](C[C@@H](C)[C@@H]2CC(=O)[C@H](C)/C=C(\C)[C@@H](O)[C@@H](OC)C(=O)[C@H](C)C[C@H](C)/C=C/C=C/C=C(\C)C(OCCc3ccccc3)C[C@@H]3CC[C@@H](C)[C@@](O)(O3)C(=O)C(=O)N3CCCCC3C(=O)O2)CC[C@H]1OC(=O)NCCN1CCOCC1 (stereo partly drawn) [Compound 93]
< 0.316 | 1000 to 10000 | CO[C@@H]1C[C@H](C[C@@H](C)[C@@H]2CC(=O)[C@H](C)/C=C(\C)[C@@H](O)[C@@H](OC)C(=O)[C@H](C)C[C@H](C)/C=C/C=C/C=C(\C)C(OCCc3ccccc3)C[C@@H]3CC[C@@H](C)[C@@](O)(O3)C(=O)C(=O)N3CCCCC3C(=O)O2)CC[C@H]1OCCCO (stereo partly drawn) [Compound 94, (1R,9S,12SR,15R,16E,18R,19R,21R,23S,24E,26E,28E,32S,35R)-1,18-dihydroxy-12-[(1R)-2-[(1S,3R,4R)-4-(3-hydroxypropoxy)-3-methoxy-cyclohexyl]-1-methyl-ethyl]-19-methoxy-15,17,21,23,29,35-hexamethyl-30-(2-phenylethoxy)-11,36-dioxa-4-azatricyclo[30.3.1.0^4,9]hexatriaconta-16,24,26,28-tetraene-2,3,10,14,20-pentone]
< 0.316 | < 1000 | CO[C@@H]1C[C@H](C[C@@H](C)[C@@H]2CC(=O)[C@H](C)/C=C(\C)[C@@H](O)[C@@H](OC)C(=O)[C@H](C)C[C@H](C)/C=C/C=C/C=C(\C)C(OCCc3ccccc3)C[C@@H]3CC[C@@H](C)[C@@](O)(O3)C(=O)C(=O)N3CCCCC3C(=O)O2)CC[C@H]1OC(=O)N(C)CCCN(C)C (stereo partly drawn) [Compound 95]
> 3.16 | > 10000 | CO[C@@H]1C[C@H](C[C@@H](C)[C@@H]2CC(=O)[C@H](C)/C=C(\C)[C@@H](O)[C@@H](OC)C(=O)[C@H](C)C[C@H](C)/C=C/C=C/C=C(\C)C(OC(C)C)C[C@@H]3CC[C@@H](C)[C@@](O)(O3)C(=O)C(=O)N3CCCCC3C(=O)O2)CC[C@H]1OCCCc1ccccc1 (stereo partly drawn) [Compound 96]
